Source: US20050013914A1, “Method of sustaining aroma and use thereof” (priority 2001, published 2005)
Read-outs that look alike come from different tables or passages of the source.

Legend:
Format in all cases: physicochemical
[1] = Adsorption of aromatic substances on CTS crystalline anhydrate (Example C-3)
Experimental: The following explains the experimental method in detail. […] The amount of the adsorbed aromatic substances was calculated by measuring the weight of the resulting powders and subtracting their starting powder weight (4 g).

[2] = Adsorption and 10-day retention of lavender oil, citronellol or phenethyl alcohol on saccharides (Example C-4); conditions: for Amount of the Adsorbed Substance: freshly prepared sample; for Relative Amount of the Retained Substance: preserved at 25° C. for 10 days vs freshly prepared
Source text: The following example is a test to confirm the effect of CTS crystalline hydrate, CTS crystalline anhydrate, or CTS amorphous anhydrate on retaining, as an aromatic substance, lavender oil, citronellol, or phenethyl alcohol. CTS crystalline pentahydrate prepared by the method described in Example B-3, CTS crystalline anhydrate in Example B-5, and CTS amorphous anhydrate in Example B-6 were used as the test saccharides “ISOELEAT P®”, a branched cyclodextrin commercialized by Maruha Corporation, Tokyo, Japan, was used as a control.
In the case of lavender oil, five parts by weight of each of the above saccharides were taken into a glass dish sized 90 mm in diameter and 20 mm in depth, admixed with one part by weight of lavender oil by stirring. Lavender oil was measured by the method described as follows; admixing 2 ml of diethyl ether with 1 g of each of the above samples freshly prepared or after preserved at 25° C. for 10 days; measuring the extracted lavender oil by gas chromatography using “GC-14B” (a gas chromatography commercialized by Shimazu corporation, Kyoto, Japan) equipped with “TC-Wax” (a capillary column sized 0.53 mm in diameter and 25 m in length commercialized by GL Sciences Inc., Tokyo, Japan.
In the case of citronellol or phenethyl alcohol, five parts by weight of each of the above saccharides were taken into a glass dish sized 90 mm in diameter and 20 mm in depth, admixed with one part by weight of citronellol or phenethyl alcohol, and mixed by stirring. The adsorbed citronellol or phenethyl alcohol was measured by admixing 2 ml of diethyl ether with 1 g of each of the above sample freshly prepared or after preserved at 25° C. for 10 days, and measuring the extracted lavender oil by gas chromatography using “GC-14B” (a gas chromatography device commercialized by Shimazu corporation, Kyoto, Japan) equipped with “DB-5” (a capillary column sized 0.25 mm in diameter and 30 m in length commercialized by GL Sciences Inc., Tokyo, Japan).
The amount of the retained aromatic substance in each sample was calculated using the following formula, and the results were shown in Table 4.
Formula: Relative amount of the retained Substance (%)={(an amount of aromatic substance in a sample preserved for 10 days)/(an amount of aromatic substance in a freshly prepared sample)}×100

[3] = Adsorption of liquid ethanol or acetic acid on saccharide powder (Example C-1); conditions: until mixture did not keep a powder form; for Amount of Adsorbed Acetic Acid: acetic acid adsorbed on 1 g of saccharide; for Amount of Adsorbed Ethanol: ethanol adsorbed on 1 g of saccharide
Source text: CTS crystalline pentahydrate, prepared by the method described in Example B-3, CTS crystalline monohydrate, prepared by the method described in Example B-4, CTS crystalline anhydrate, prepared by the method described in Example B-5, or CTS amorphous anhydrate prepared by the method described in Example B-6, was used for preparation of aroma-retaining material. “ISOELEAT P™”, a branched cyclodextrin commercialized by Maruha corporation, Tokyo, Japan, anhydrous trehalose prepared by the method described in Japanese Patent Kokai No. 111,284/97, “PINEFIBRE™”, a dextrin commercialized by Matsutani Chemical Industries Co., Ltd., Tokyo, Japan, or soluble starch in a reagent grade commercialized by Katayama Chemical Industries, Co., Ltd., Tokyo, Japan, was dried in vacuo at 80° C. for 16 hours as control saccharides. […] The resulting mixture was weighed. The weight of ethanol or acetic acid was calculated by subtracting the pre-measured saccharide weight. The weight of ethanol or acetic acid adsorbed on 1 g of each saccharide was in Table 1.

[4] = aromatic substance adsorbed per 1 g of CTS crystalline anhydrate
[5] = citronellol, listed as Sample 3
[6] = lavender oil, listed as Sample 3
[7] = phenethyl alcohol, listed as Sample 3
[8] = citronellol, listed as Sample 1
[9] = lavender oil, listed as Sample 1
[10] = phenethyl alcohol, listed as Sample 1

**Q.** For 1-Propanol, which “Amount of Adsorbed Substance” value [1, 4] is on record?
**A.** 0.46 g

**Q.** For 3-Methyl-1-Propanol, which “Amount of Adsorbed Substance” value [1, 4] is on record?
**A.** 0.36 g

**Q.** For OCCCCO [1,4-Butanediol], which “Amount of Adsorbed Substance” value [1] is on record?
**A.** 0.28 g

**Q.** Which “Amount of Adsorbed Substance” value [1, 4] does the source give for CCCCCCO [1-Hexanol] here?
**A.** 0.41 g

**Q.** Which “Amount of Adsorbed Substance” value [1, 4] does the source give for CCCCCCCCO [1-Octanol] here?
**A.** 0.28 g

**Q.** Which “Amount of Adsorbed Substance” value [1, 4] does the source give for CCCCCO [1-Pentanol] here?
**A.** 0.31 g

**Q.** For NCCO [2-Aminoethanol], which “Amount of Adsorbed Substance” value [1, 4] is on record?
**A.** 0.13 g

**Q.** With CC(C)CO [2-Methyl-1-Propanol] as the molecule, how does the “Amount of Adsorbed Substance” value [1, 4] read?
**A.** 0.36 g

**Q.** For CC(C)(C)O [2-Methyl-2-Propanol], which “Amount of Adsorbed Substance” value [1] is on record?
**A.** 0.32 g

**Q.** With CC(C)O [2-Propanol] as the molecule, how does the “Amount of Adsorbed Substance” value [1, 4] read?
**A.** 0.48 g

**Q.** Which “Amount of Adsorbed Substance” value [1, 4] does the source give for OCCCc1ccccc1 [3-Phenyl-1-Propanol] here?
**A.** 0.52 g

**Q.** With CC(=O)O [Acetic Acid] as the molecule, how does the “Amount of Adsorbed Substance” value [1, 4] read?
**A.** 0.47 g

**Q.** With C=CCN=C=S [Allylisothiocyanate] as the molecule, how does the “Amount of Adsorbed Substance” value [1, 4] read?
**A.** 0.37 g

**Q.** With c1ccccc1 [Benzene] as the molecule, how does the “Amount of Adsorbed Substance” value [1, 4] read?
**A.** 0.14 g

**Q.** With OCc1ccccc1 [Benzyl Alcohol] as the molecule, how does the “Amount of Adsorbed Substance” value [1, 4] read?
**A.** 0.43 g

**Q.** Which “Amount of Adsorbed Substance” value [1, 4] does the source give for ClCc1ccccc1 [Benzyl Chloride] here?
**A.** 0.32 g

**Q.** Which “Amount of Adsorbed Substance” value [1, 4] does the source give for CCCC(=O)O [Butyric Acid] here?
**A.** 0.55 g

**Q.** Which results are given for OCC1OC2OCC3O[C@H](O[C@H]4C(O)C(CO)OC(OCC5O[C@H](O[C@@H](C1O)C2O)C(O)C(O)[C@@H]5O)C4O)C(O)C(O)[C@@H]3O (some centres unmarked) [CTS amorphous anhydrate]?
**A.** Adsorbing capability relative to branched cyclodextrin ([2]; citronellol): about 1.2 fold; Amount of the Adsorbed Substance ([2]; citronellol): 190 mg/g saccharide; Amount of the Adsorbed Substance [2, 5]: 190 mg/g saccharide; Relative Amount of the Retained Substance [2, 5]: 40%; Adsorbing capacity relative to branched cyclodextrin ([2]; lavender oil): about 1.3 fold; Amount of the Adsorbed Substance ([2]; lavender oil, listed as CTS amorphous anhydrte): 185 mg/g saccharide; Amount of the Adsorbed Substance [2, 6]: 185 mg/g saccharide; Relative Amount of the Retained Substance [2, 6]: 8%; Amount of the Adsorbed Substance ([2]; phenethyl alcohol): 180 mg/g saccharide; Amount of the Adsorbed Substance [2, 7]: 180 mg/g saccharide; Relative Amount of the Retained Substance [2, 7]: 12%; Amount of Adsorbed Acetic Acid [3]: 0.47 g; Amount of Adsorbed Ethanol [3]: 0.49 g

**Q.** Which results are given for OCC1OC2OCC3O[C@H](O[C@H]4C(O)C(CO)OC(OCC5O[C@H](O[C@@H](C1O)C2O)C(O)C(O)[C@@H]5O)C4O)C(O)C(O)[C@@H]3O (some centres unmarked) [CTS crystalline monohydrate]?
**A.** Amount of Adsorbed Acetic Acid [3]: 0.35 g; Amount of Adsorbed Ethanol [3]: 0.45 g

**Q.** For OCC1OC2OCC3O[C@H](O[C@H]4C(O)C(CO)OC(OCC5O[C@H](O[C@@H](C1O)C2O)C(O)C(O)[C@@H]5O)C4O)C(O)C(O)[C@@H]3O (some centres unmarked) [CTS crystalline pentahydrate], which “Amount of the Adsorbed Substance” value ([2]; citronellol, listed as CTS crystalline hydrate) is on record?
**A.** 155 mg/g saccharide

**Q.** What about the “Amount of the Adsorbed Substance” value [2, 8] of the same molecule?
**A.** 155 mg/g saccharide

**Q.** What about the “Relative Amount of the Retained Substance” value (“Relative Amount” below) [2, 8] of the same molecule?
**A.** 30%

**Q.** What about the “Amount of the Adsorbed Substance” value ([2]; lavender oil, listed as CTS crystalline hydrate) of the same molecule?
**A.** 150 mg/g saccharide

**Q.** And the “Amount of the Adsorbed Substance” value [2, 9]?
**A.** 150 mg/g saccharide

**Q.** What about the “Relative Amount” value [2, 9] of the same molecule?
**A.** 1%

**Q.** And the “Amount of the Adsorbed Substance” value ([2]; phenethyl alcohol, listed as CTS crystalline hydrate)?
**A.** 140 mg/g saccharide

**Q.** And the “Amount of the Adsorbed Substance” value [2, 10]?
**A.** 140 mg/g saccharide

**Q.** And the “Relative Amount” value [2, 10]?
**A.** 3%

**Q.** What about the “Amount of Adsorbed Acetic Acid” value [3] of the same molecule?
**A.** 0.27 g

**Q.** What about the “Amount of Adsorbed Ethanol” value [3] of the same molecule?
**A.** 0.32 g

**Q.** For CCCCCC(=O)O [Capronic Acid], which “Amount of Adsorbed Substance” value [1, 4] is on record?
**A.** 0.47 g

**Q.** For ClC(Cl)Cl [Chloroform], which “Amount of Adsorbed Substance” value [1] is on record?
**A.** 0.32 g

**Q.** For CC(C)=CCCC(C)CC=O (centres unmarked) [Citronellal], which “Amount of Adsorbed Substance” value [1, 4] is on record?
**A.** 0.46 g

**Q.** Which “Amount of Adsorbed Substance” value [1, 4] does the source give for CC(C)=CCCC(C)CCO (centres unmarked) [Citronellol] here?
**A.** 0.39 g

**Q.** With CC(=O)CC(C)(C)O [Diacetone Alcohol] as the molecule, how does the “Amount of Adsorbed Substance” value [1, 4] read?
**A.** 0.28 g

**Q.** Which “Amount of Adsorbed Substance” value [1] does the source give for CCOCC [Diethyl Ether] here?
**A.** 0.17 g

**Q.** Which “Amount of Adsorbed Substance” value [1, 4] does the source give for CCO [Ethanol] here?
**A.** 0.50 g

**Q.** With O=CO [Formic Acid] as the molecule, how does the “Amount of Adsorbed Substance” value [1] read?
**A.** 0.24 g

**Q.** With CC(C)=CCC/C(C)=C/CO [Geraniol] as the molecule, how does the “Amount of Adsorbed Substance” value [1, 4] read?
**A.** 0.32 g

**Q.** With CC(C)c1cccc(=O)c(O)c1 [Hinokithiol] as the molecule, how does the “Amount of Adsorbed Substance” value [1, 4] read?
**A.** 0.29 g

**Q.** Which “Amount of Adsorbed Substance” value [1, 4] does the source give for CC(C)C(=O)O [Isobutyric Acid] here?
**A.** 0.51 g

**Q.** Which “Amount of Adsorbed Substance” value [1, 4] does the source give for C=C(C)[C@H]1CC=C(C)CC1 [Limonene] here?
**A.** 0.42 g

**Q.** Which “Amount of Adsorbed Substance” value [1, 4] does the source give for C=CC(C)(O)CCC=C(C)C (centres unmarked) [Linalool] here?
**A.** 0.42 g

**Q.** Which “Amount of Adsorbed Substance” value [1] does the source give for CO [Methanol] here?
**A.** 0.61 g

**Q.** Which “Amount of Adsorbed Substance” value [1, 4] does the source give for CCCCCCCC(=O)O [Octanic Acid] here?
**A.** 0.47 g

**Q.** With CCCCCOC(C)=O [Pentylacetate] as the molecule, how does the “Amount of Adsorbed Substance” value [1, 4] read?
**A.** 0.46 g

**Q.** Which “Amount of Adsorbed Substance” value [1, 4] does the source give for OCCc1ccccc1 [Phenethyl Alcohol] here?
**A.** 0.40 g

**Q.** With CCC(=O)O [Propionic Acid] as the molecule, how does the “Amount of Adsorbed Substance” value [1, 4] read?
**A.** 0.50 g

**Q.** Which “Amount of Adsorbed Substance” value [1, 4] does the source give for CC1=CCC(O)(C(C)C)CC1 (centres unmarked) [Terpinen-4-ol] here?
**A.** 0.34 g

**Q.** For Cc1ccccc1 [Toluene], which “Amount of Adsorbed Substance” value [1] is on record?
**A.** 0.29 g

**Q.** Which “Amount of Adsorbed Substance” value [1, 4] does the source give for CCCCC(=O)O [Valeric Acid] here?
**A.** 0.47 g

**Q.** Which “Amount of Adsorbed Substance” value [1, 4] does the source give for COc1ccccc1O [o-Methoxyphenol] here?
**A.** 0.42 g

**Q.** For CC(C)(C)N=C=S [t-Butylisothiocyanate], which “Amount of Adsorbed Substance” value [1, 4] is on record?
**A.** 0.36 g

**Q.** Which “Amount of Adsorbed Substance” value [1, 4] does the source give for CC1=CCC2CC1C2(C)C (stereo not drawn) [α-Pinene] here?
**A.** 0.35 g

**Q.** With CC1=CC=C(C(C)C)CC1 [α-Terpinene] as the molecule, how does the “Amount of Adsorbed Substance” value [1, 4] read?
**A.** 0.37 g

**Q.** For CC1=CCC(C(C)(C)O)CC1 (stereo not drawn) [α-Terpineol], which “Amount of Adsorbed Substance” value [1, 4] is on record?
**A.** 0.33 g

**Q.** Which “Amount of Adsorbed Substance” value [1, 4] does the source give for C=C1CCC2CC1C2(C)C (stereo not drawn) [β-Pinene] here?
**A.** 0.30 g

**Q.** For Bornylacetate, which “Amount of Adsorbed Substance” value [1, 4] is on record?
**A.** 0.48 g
